Laboratory results as given in PubChem BioAssay (NCI).
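48-hour exposure; five concentrations; linearly interpolated endpoints. GI50: concentration for 50% inhibition of growth. TGI: concentration producing complete growth inhibition.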

Tests used:
Test in all cases: NCI anticancer screen, dose series, 48 h
A498 renal = system: A498 renal
COLO 205 colon = system: COLO 205 colon
HCC-2998 colon = system: HCC-2998 colon
PC-3 prostate = system: PC-3 prostate
SW-620 colon = system: SW-620 colon
T-47D breast = system: T-47D breast
UACC-257 melanoma = system: UACC-257 melanoma
UACC-62 melanoma = system: UACC-62 melanoma

Compound	GI50 (A498 renal)	TGI (A498 renal)	GI50 (COLO 205 colon)	TGI (COLO 205 colon)	GI50 (HCC-2998 colon)	TGI (HCC-2998 colon)	GI50 (PC-3 prostate)	TGI (PC-3 prostate)	GI50 (SW-620 colon)	TGI (SW-620 colon)	GI50 (T-47D breast)	TGI (T-47D breast)	GI50 (UACC-257 melanoma)	TGI (UACC-257 melanoma)	GI50 (UACC-62 melanoma)	TGI (UACC-62 melanoma)
Cn1cc(C2=C(c3cccc(N)c3)C(=O)NC2=O)c2ccccc21	1.13 µM	> 6.7 µM	10.8 µM	> 25 µM	> 25 µM	> 25 µM	14.8 µM	> 25 µM	17.8 µM	> 25 µM	14.3 µM	> 25 µM	> 25 µM	> 25 µM	12.6 µM	> 25 µM
Cc1cc(Cl)cc2c(N=Nc3ccccc3[N+](=O)[O-])c(O)[nH]c12		> 100 µM		> 100 µM		> 100 µM		> 100 µM		> 100 µM		> 100 µM		> 100 µM		> 100 µM
CCCCCCc1cc2cc(-c3nc4ccccc4[nH]3)c(=Nc3ccccc3C)oc2cc1O	4.02 µM	16.8 µM	> 100 µM	> 100 µM	22.2 µM	> 77.3 µM	2.3 µM	7.98 µM	2.04 µM	4.91 µM	2.12 µM	5.25 µM	2.6 µM	7.01 µM	1.62 µM	3.41 µM
O=c1c2ccccc2c(Br)c(Br)c2ccccc12	5.37 µM	23 µM	8.61 µM	23.7 µM	17.3 µM	35.8 µM	10.1 µM	30.2 µM	1.09 µM	3.13 µM	4.43 µM	32.3 µM	7.48 µM	43.6 µM	18.3 µM	59.5 µM
Cc1nc(-c2ccccc2)c(Cc2ccccc2O)c(=O)[nH]1		> 100 µM		> 100 µM				> 100 µM		> 100 µM		> 100 µM		> 100 µM		> 100 µM
COc1cccc(C2C3=C(COC3=O)N(CCO)c3cc(OC)ccc32)c1 (stereo not drawn)	0.0367 µM	1.08 µM	0.107 µM	0.755 µM	0.137 µM	> 100 µM	0.0898 µM	> 100 µM	0.0863 µM	> 100 µM			0.036 µM	> 100 µM	0.0488 µM	> 100 µM
CCC1C(=O)OCc2c1cc1n(c2=O)Cc2cc3ccccc3nc2-1 (stereo not drawn)		49 µM		> 100 µM		> 100 µM		> 100 µM		> 100 µM		> 90.2 µM		> 100 µM		> 37.6 µM
COc1cc(-n2cc(-c3ccc(F)cc3)nc2SCc2ccccc2)cc(OC)c1OC	37.4 µM	> 100 µM	> 100 µM	> 100 µM	> 100 µM	> 100 µM	9.48 µM	> 100 µM	> 100 µM	> 100 µM	9.57 µM	> 100 µM	> 100 µM	> 100 µM	> 100 µM	> 100 µM
COc1cc2cc(C(=O)CCC(=O)O)sc2cc1OC	18.7 µM	45.4 µM	> 100 µM	> 100 µM	> 100 µM	> 100 µM	> 100 µM	> 100 µM	> 100 µM	> 100 µM	> 100 µM	> 100 µM	33.4 µM	> 100 µM	> 100 µM	> 100 µM
COC(=O)C1=C(C)NC(C)=C(C(=O)OC)C1/C=C(\Cl)c1ccc(Cl)c(Cl)c1	11.4 µM	24.1 µM	17.9 µM	43.2 µM	17.3 µM	31.1 µM	10.8 µM	23.1 µM	12.2 µM	28.7 µM	20.2 µM	50.1 µM	18 µM	36.1 µM	6.42 µM	20.3 µM
O=c1ccc(N=Nc2ccc([N+](=O)[O-])cc2)ccc1O	> 100 µM	> 100 µM	21.7 µM	> 100 µM	6.08 µM	> 100 µM	5.15 µM	> 100 µM	3.45 µM	> 100 µM	4.31 µM	> 100 µM	10.6 µM	81.6 µM	8.45 µM	43.9 µM
Oc1ccc(CN2CCC(N3CCOCC3)CC2)c2cccnc12	> 100 µM	> 100 µM	49.8 µM	> 100 µM	51.7 µM	> 100 µM	46.2 µM	> 100 µM	60 µM	> 100 µM	35.5 µM	> 100 µM	32.3 µM	76.5 µM	21.3 µM	50.2 µM
C=C(C)C1Cc2c(cc(OC)c3c(=O)c4cccc(O)c4oc23)O1 (stereo not drawn)				> 100 µM		> 100 µM		> 100 µM		> 100 µM		40 µM		> 100 µM		31.9 µM
CS(=O)(=O)OCC1OC(n2ccc(NC(=O)c3ccccc3)nc2=O)CC1OS(C)(=O)=O (stereo not drawn)		> 100 µM		> 100 µM				> 100 µM		> 100 µM		> 100 µM		> 100 µM		> 100 µM
N#Cc1cccc(OCc2nc(N)nc(N)c2-c2ccc(Cl)c(Cl)c2)c1	2.9 µM	> 100 µM	5.3 µM	> 100 µM	4.11 µM	> 100 µM	0.604 µM	> 100 µM	0.484 µM	> 100 µM	8.25 µM	> 100 µM	2.92 µM	> 100 µM	0.442 µM	> 100 µM
O=C(Nc1ccc(F)cc1)Nc1ccccc1CNc1nc(Nc2ccc(OCCN3CCCC3)cc2)ncc1Cl	1.42 µM	8.21 µM			2.73 µM	9.27 µM	1.67 µM	6.19 µM	1.65 µM	6.84 µM	1.48 µM	4.28 µM	1.07 µM	2.35 µM	0.968 µM	2.04 µM
Clc1cc2c(cc1Cl)Oc1cc(Cl)c(Cl)cc1O2	> 0.625 µM	> 0.625 µM	> 0.625 µM	> 0.625 µM	> 0.625 µM	> 0.625 µM	> 0.625 µM	> 0.625 µM	> 0.625 µM	> 0.625 µM	> 0.625 µM	> 0.625 µM			> 0.625 µM	> 0.625 µM
Nc1ccccc1-c1ccc([N+](=O)[O-])cc1	29 µM	> 100 µM	10.7 µM	27.2 µM	2.25 µM	8.54 µM	15 µM	> 100 µM	19.3 µM	> 100 µM	3.04 µM	> 100 µM	21.1 µM	> 100 µM	0.756 µM	19.4 µM

Compound	GI50 (A498 renal)	TGI (A498 renal)	GI50 (COLO 205 colon)	TGI (COLO 205 colon)	GI50 (HCC-2998 colon)	TGI (HCC-2998 colon)	GI50 (PC-3 prostate)	TGI (PC-3 prostate)	GI50 (SW-620 colon)	TGI (SW-620 colon)	GI50 (T-47D breast)	TGI (T-47D breast)	GI50 (UACC-257 melanoma)	TGI (UACC-257 melanoma)	GI50 (UACC-62 melanoma)	TGI (UACC-62 melanoma)
CC/C(=C(/c1ccc(OCCN(C)C)cc1)c1ccc(OC(=O)CCC(=O)c2c(C)[nH]c(/C=C3\N=C(c4ccc[nH]4)C=C3OC)c2C)cc1)c1ccccc1	2.54 µM	16.8 µM	1.9 µM	7.24 µM	3.72 µM	13.4 µM	1.78 µM	17.1 µM	0.76 µM	2.57 µM	1.34 µM	7.79 µM	3.38 µM	14.7 µM	1.81 µM	3.78 µM
CN(Cc1ccc(Cl)cc1)c1ccc(CO)c(Cl)c1	0.0464 µM	0.179 µM	5.95 µM	18.1 µM	9.36 µM	22.1 µM	12.8 µM	31 µM	3.85 µM	19.5 µM	0.764 µM	5.4 µM	0.515 µM	2.45 µM	0.33 µM	2.2 µM
Clc1ccc(/C=C/c2cc(N3CCOCC3)c3cc(Cl)c(Cl)cc3n2)cc1	> 100 µM	> 100 µM	> 100 µM	> 100 µM	> 100 µM	> 100 µM	1.61 µM	> 100 µM	> 100 µM	> 100 µM	> 100 µM	> 100 µM	> 100 µM	> 100 µM	> 100 µM	> 100 µM
CC(C)[C@H]1CC[C@H]2[C@@H](CC[C@H]3[C@](C)(CN)CCC[C@]23C)C1	13.2 µM	27 µM	1.74 µM	3.27 µM	1.79 µM	3.18 µM	2.36 µM	7.14 µM	1.84 µM	3.49 µM	1.96 µM	4.52 µM	2.68 µM	6.02 µM	3.38 µM	14.3 µM
Nc1ncnc2c1ncn2Cc1ccc(C23CC4CC(CC(C4)C2)C3)c(OCc2cc(F)c(F)cc2F)c1	> 100 µM	> 100 µM	14.4 µM	> 100 µM	6.26 µM	57.8 µM	2.17 µM	10.9 µM	7.25 µM	> 100 µM	> 100 µM	> 100 µM	2.33 µM	7.4 µM	4.75 µM	> 100 µM
CC(=O)CCc1ccc(OC2OC(COC(=O)c3cc(O)c(O)c(O)c3)C(O)C(O)C2OC(=O)/C=C/c2ccccc2)cc1 (stereo not drawn)	23.2 µM	48 µM	28.1 µM	89.4 µM	15.3 µM	30.2 µM	33.4 µM	> 100 µM	35.1 µM	97.5 µM	26.1 µM	> 100 µM			18.4 µM	32.6 µM
CCOc1ccccc1NC(=O)c1cc2ccccc2cc1O	2.16 µM	5.55 µM	12.7 µM	26.3 µM	4 µM	15.6 µM	2.73 µM	10.1 µM	3.67 µM	12.6 µM	2.67 µM	14.5 µM	2.23 µM	5.98 µM	2.18 µM	9.55 µM
N#C/C(=N\Nc1ccc(Cl)cc1)C(=O)Nc1cc(-c2ccccc2)nn1-c1ccccc1			2.07 µM	4.51 µM	3.74 µM	> 100 µM	2.4 µM	> 100 µM	3.11 µM	> 100 µM	2.01 µM	7.12 µM	2.35 µM	8.62 µM	2.03 µM	> 100 µM
COc1ccc(-n2cc(-c3cc(OC)c(OC)c(OC)c3)nc2SCc2ccccc2)cc1	> 100 µM	> 100 µM	49.5 µM	> 100 µM	45.5 µM	> 100 µM	8.7 µM	> 100 µM	> 100 µM	> 100 µM	7.89 µM	> 100 µM			42.2 µM	> 100 µM
Cc1cc(NCCCNc2ccnc3cc(Cl)ccc23)nc(N2CCN(C)CC2)n1	14.4 µM	28.3 µM	2.28 µM	6.29 µM	2.36 µM	11.1 µM			2.62 µM	17.5 µM	6.7 µM	30.9 µM	1.8 µM	3.88 µM	2.05 µM	4.55 µM
c1ccc2c(c1)sc1c3cnccc3ccc21		> 100 µM		> 100 µM		> 100 µM				> 100 µM		> 100 µM		> 100 µM		> 100 µM
Cn1ccnc1C(=O)/C=C/c1ccc(C(=O)Nc2ccc(S(F)(F)(F)(F)F)cc2)cc1			2 µM	12.3 µM	2.93 µM	> 14.3 µM	1.9 µM	> 14.3 µM	0.54 µM	5.58 µM	0.923 µM	> 14.3 µM	2.18 µM	> 14.3 µM	2.28 µM	> 14.3 µM
CC1=C(/C=C/C(=O)O)C(C)(C)CCC1		> 100 µM		> 100 µM		> 100 µM		> 100 µM		> 100 µM				> 100 µM		> 100 µM
O=c1cc(-c2ccccc2)oc2cc(O)c(O)c(O)c12	6.94 µM	> 100 µM			15 µM	37.9 µM	17.4 µM	> 100 µM	17.8 µM	> 100 µM	23.7 µM	> 100 µM	39 µM	> 100 µM	9.39 µM	31.9 µM
COc1cc2c(cc1O)-c1c(cnn1-c1ccc([N+](=O)[O-])cc1)CCC2		80.3 µM		38.1 µM				58.7 µM		91.3 µM		> 100 µM		52 µM		8.42 µM
O=C(Nc1ccccc1)c1nn(-c2cc(S(=O)(=O)O)c([N+](=O)[O-])cc2Cl)[n+](-c2cc(S(=O)(=O)[O-])c([N+](=O)[O-])cc2Cl)n1				> 100 µM		> 100 µM		> 100 µM		> 100 µM		> 100 µM		> 100 µM		> 100 µM
Nc1nc(N)c(Cn2ccnc2)c(=O)[nH]1		> 100 µM		> 100 µM				> 100 µM				> 100 µM		> 100 µM		> 100 µM
